Reference: US11261186B2, “Biaryl derivative as GPR120 agonist” (LG CHEM, LTD., priority 2014, dated 2022)

Biological target: T1, hGPR120 (Homo sapiens, UniProt Q5NUL3)
T1 construct: expressed in transfected cells; host or cells: CHO-K1
T1 sequence (Q5NUL3 1-361): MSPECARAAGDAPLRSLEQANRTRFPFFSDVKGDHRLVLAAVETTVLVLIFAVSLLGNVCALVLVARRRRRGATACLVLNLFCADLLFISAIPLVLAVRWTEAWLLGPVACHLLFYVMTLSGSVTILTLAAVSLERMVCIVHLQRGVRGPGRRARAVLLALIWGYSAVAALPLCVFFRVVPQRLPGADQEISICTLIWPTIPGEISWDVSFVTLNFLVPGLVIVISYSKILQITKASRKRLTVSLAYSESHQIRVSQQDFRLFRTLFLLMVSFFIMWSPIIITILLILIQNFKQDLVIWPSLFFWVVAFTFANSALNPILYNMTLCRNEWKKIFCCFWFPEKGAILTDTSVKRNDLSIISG
Assay: Measurement of Activity of GPR120 Agonist (Cell-Based Assay), Calcium 5 dye fluorescence
Settings: CHO-K1 cells expressing Ga16 and hGPR120
In short: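 Agonist-evoked calcium signal, expressed as percent relative to DMSO-only wells, read at 485/525 nm after serial-dilution addition (0.5% DMSO final). Cells were hGPR120/Gα16 CHO-K1, seeded 18 h earlier and dye-loaded for 1 h at 37°C.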

Row | SMILES | EC50 [nM]
1 | Cc1cc(OC2CCC2)nc(-c2cc(F)c(N3CCC(CC(=O)O)C3)c(F)c2)n1 (stereo not drawn) [Example 575, {1-[4-(4-cyclobutoxy-6-methyl-pyrimidin-2-yl)-2,6-difluoro-phenyl]-pyrrolidin-3-yl}-acetic acid] | 200 to 2000
2 | CCCOc1ncccc1-c1cc(F)c(N2CCC(CC(=O)O)CC2)c(F)c1 [Example 120, 2-[1-[2,6-difluoro-4-(2-propoxy-3-pyridyl)phenyl]-4-piperidyl]acetic acid] | 200 to 2000
3 | O=C(O)CC1CCN(c2c(F)cc(-c3cccc(C(=O)C4CC4)n3)cc2F)CC1 [Example 312, 2-[1-[4-[6-(cyclopropanecarbonyl)-2-pyridyl]-2,6-difluoro-phenyl]-4-piperidyl]acetic acid] | 200 to 2000
4 | CC(C)Sc1cccc(-c2cc(F)c(C(C)CCCC(=O)O)c(F)c2)n1 (stereo not drawn) [Example 53, 5-[2,6-difluoro-4-(6-isopropylsulfanyl-2-pyridyl)-phenyl]hexanoic acid] | < 200
5 | CCCOc1cccc(-c2cc(F)c(OCc3cc(O)no3)c(F)c2)n1 [Example 73, 5-[[2,6-difluoro-4-(6-propoxy-2-pyridyl)phenoxy]methyl]isoxazol-3-ol] | < 200
6 | O=C(O)CC1CCN(c2c(F)cc(-c3cccc(CC4CCCC4)n3)cc2F)CC1 [Example 376, 2-[1-[4-[6-(cyclopentylmethyl)-2-pyridyl]-2,6-difluoro-phenyl]-4-piperidyl]acetic acid] | 200 to 2000
7 | CC1(C)Oc2cccc(-c3cc(F)c(OCCCC(=O)O)c(F)c3)c2O1 [Example 23, 4-[4-(2,2-dimethyl-benzo[1,3]dioxol-4-yl)-2,6-difluoro-phenoxy]-butyric acid] | < 200
8 | O=C(O)CCCSc1ccc(-c2cccc3c2OC(F)(F)O3)cc1F [Example 154, 4-[4-(2,2-difluoro-benzo[1,3]dioxol-4-yl)-2-fluoro-phenylsulfanyl]-butyric acid] | < 200
9 | O=C(O)CCC1CCc2cc(-c3cccnc3SC3CCCC3)ccc2S1 (stereo not drawn) [Example 281, 3-[6-(2-cyclopentylsulfanyl-pyridin-3-yl)-thiochroman-2-yl]-propionic acid] | < 200
10 | Cc1cc(OCC2CC2)nc(-c2cc(F)c(N(C)CCCC(=O)O)c(F)c2)n1 [Example 489, 4-[4-[4-(cyclopropylmethoxy)-6-methyl-pyrimidin-2-yl]-2,6-difluoro-N-methyl-anilino]butanoic acid] | < 200
11 | O=C(O)C1CC1COc1c(F)cc(-c2cncc(OCC3CC3)n2)cc1F (stereo not drawn) [Example 547, 2-[4-(6-cyclopropylmethoxy-pyrazin-2-yl)-2,6-difluoro-phenoxymethyl]-cyclopropanecarboxylic acid] | 200 to 2000
12 | O=C(O)CCCOc1c(F)cc(-c2csc(COC3CCC3)c2)cc1F [Example 573, 4-[4-(5-cyclobutoxymethyl-thiophen-3-yl)-2,6-difluoro-phenoxy]-butanoic acid] | < 200
13 | O=C(O)CCC1CCc2cc(-c3cccc(OC4CCCC4)n3)ccc2N1 (stereo not drawn) [Example 11, 3-[6-(6-cyclopentyloxy-pyridin-2-yl)-1,2,3,4-tetrahydro-quinolin-2-yl]-propionic acid] | 200 to 2000
14 | O=C(O)CC1CCN(c2c(F)cc(-c3cccc(C4CCC4)n3)cc2F)CC1 [Example 373, 2-[1-[4-(6-cyclobutyl-2-pyridyl)-2,6-difluoro-phenyl]-4-piperidyl]acetic acid] | 200 to 2000
15 | COc1ccc(-c2cc(F)c(C3CC3CCC(=O)O)c(F)c2)c2c1OC(C)(C)C2 (stereo not drawn) [Example 442, 3-[2-[2,6-difluoro-4-(7-methoxy-2,2-dimethyl-3H-benzofuran-4-yl)phenyl]cyclopropyl]propanoic acid] | 200 to 2000
16 | CC(C)Oc1ncccc1-c1ccc(C(C)(C)CCCC(=O)O)cc1 [Example 158, 5-[4-(2-isopropoxy-pyridin-3-yl)-phenyl]-5-methyl-hexanoic acid] | 200 to 2000
17 | CCCSc1ncccc1-c1ccc(CCCc2noc(=S)[nH]2)cc1 [Example 64, 3-[3-[4-(2-propylsulfanyl-3-pyridyl)phenyl]propyl]-4H-1,2,4-oxadiazol-5-thione] | 2000 to 20000
18 | Cc1cc(OCC2CC2)nc(-c2cc(F)c(OCCCC(=O)O)c(Cl)c2)c1 [Example 435, 4-[2-chloro-4-(6-cyclopropylmethoxy-4-methyl-pyridin-2-yl)-6-fluoro-phenoxy]-butyric acid] | < 200
19 | O=C(O)CC1CCN(c2c(F)cc(-c3cncc(C4CCCC4)n3)cc2F)CC1 [Example 363, 2-[1-[4-(6-cyclopentylpyrazin-2-yl)-2,6-difluoro-phenyl]-4-piperidyl]acetic acid] | < 200
20 | CCCOc1cccc(-c2cc(F)c(N3CCC(CCC(=O)O)CC3)c(F)c2)n1 [Example 620, 3-{1-[2,6-difluoro-4-(6-propoxy-pyridin-2-yl)-phenyl]-piperidin-4-yl}-propionic acid] | 200 to 2000

Row | SMILES | EC50 [nM]
21 | O=C(O)CC1CCN(c2c(F)cc(-c3cccnc3SC3CCC3)cc2F)CC1 [Example 118, 2-[1-[4-(2-cyclobutylsulfanyl-3-pyridyl)-2,6-difluoro-phenyl]-4-piperidyl]acetic acid] | 200 to 2000
22 | CC1(C)Cc2c(ccc(F)c2-c2cc(F)c(OCCCC(=O)O)c(F)c2)N1 [Example 268, 4-[2,6-difluoro-4-(5-fluoro-2,2-dimethyl-2,3-dihydro-1H-indol-4-yl)-phenoxy]-butyric acid] | 200 to 2000
23 | O=C(O)C1CC1COc1c(F)cc(-c2nccc(OCC3CC3)n2)cc1F (stereo not drawn) [Example 545, 2-[4-(4-cyclopropylmethoxy-pyrimidin-2-yl)-2,6-difluoro-phenoxymethyl]-cyclopropanecarboxylic acid] | 200 to 2000
24 | COc1ccc(-c2cc(F)c(N(C)CCCC(=O)O)c(F)c2)c2c1OC(C)(C)C2 [Example 259, 4-{[2,6-difluoro-4-(7-methoxy-2,2-dimethyl-2,3-dihydro-benzofuran-4-yl)-phenyl]-methyl-amino}-butyric acid] | < 200
25 | CC(C)Oc1cccc(-c2cc(F)c(OCc3cc(O)no3)c(F)c2)n1 [Example 71, 5-[[2,6-difluoro-4-(6-isopropoxy-2-pyridyl)phenoxy]methyl]isoxazol-3-ol] | < 200
26 | O=C(O)CCC1CCc2cc(-c3cccc(OC4CCCC4)c3)ccc2O1 (stereo not drawn) [Example 448, 3-[6-[3-(cyclopentoxy)phenyl]chroman-2-yl]propanoic acid] | < 200
27 | O=C(O)CCCOc1c(F)cc(-c2sccc2COCC2CC2)cc1F [Example 574, 4-[4-(3-cyclopropylmethoxymethyl-thiophen-2-yl)-2,6-difluoro-phenoxy]-butanoic acid] | < 200
28 | O=C(O)CC1CCN(c2c(F)cc(-c3cncc(Oc4ccc(F)cc4)n3)cc2F)CC1 [Example 513, 2-[1-[2,6-difluoro-4-[6-(4-fluorophenoxy)pyrazin-2-yl]phenyl]-4-piperidyl]acetic acid] | < 200
29 | CN(CCCC(=O)O)c1ccc(-c2cccnc2SC2CCCC2)cc1F [Example 213, 4-{[4-(2-cyclopentylsulfanyl-pyridin-3-yl)-2-fluoro-phenyl]-methyl-amino}-butyric acid] | < 200
30 | CC(C)Sc1ncccc1-c1cc(F)c(N2CC(CC(=O)O)C2)c(F)c1 [Example 109, 2-[1-[2,6-difluoro-4-(2-isopropylsulfanyl-3-pyridyl)phenyl]azetidin-3-yl]acetic acid] | < 200
31 | O=C(O)CCCCc1ccc(-c2cccc(SC3CCCC3)n2)cc1 [Example 28, 5-[4-(6-cyclopentylsulfanyl-2-pyridyl)phenyl]pentanoic acid] | < 200
32 | CC(C)Oc1cncc(-c2cc(F)c(N3CCC(CC(=O)O)CC3)c(F)c2)n1 [Example 339, 2-[1-[2,6-difluoro-4-(6-isopropoxypyrazin-2-yl)phenyl]-4-piperidyl]acetic acid] | < 200
33 | CC(C)Sc1cccc(-c2ccc3c(c2)CCC(CCC(=O)O)O3)n1 (stereo not drawn) [Example 8, 3-[6-(6-isopropylsulfanyl-pyridin-2-yl)-chroman-2-yl]-propionic acid] | < 200
34 | CN(CCCC(=O)O)c1c(F)cc(-n2ncc3ccc(OC4CCC4)cc32)cc1F [Example 492, 4-[4-[6-(cyclobutoxy)indazol-1-yl]-2,6-difluoro-N-methyl-anilino]butanoic acid] | < 200
35 | O=C(O)CCCOc1c(F)cc(-c2csc(OC3CCC3)n2)cc1F [Example 394, 4-[4-[2-(cyclobutoxy)thiazol-4-yl]-2,6-difluoro-phenoxy]butanoic acid] | < 200
36 | O=C(O)CC1CN(c2c(F)cc(-c3cccnc3OC3CCCC3)cc2F)C1 [Example 113, 2-[1-[4-[2-(cyclopentoxy)-3-pyridyl]-2,6-difluoro-phenyl]azetidin-3-yl]acetic acid] | < 200
37 | CCN(CCCCC(=O)O)c1c(F)cc(-c2cccnc2OC2CCCC2)cc1F [Example 95, 5-[4-[2-(cyclopentoxy)-3-pyridyl]-N-ethyl-2,6-difluoro-anilino]pentanoic acid] | 200 to 2000
38 | Oc1cc(CCOc2c(F)cc(-c3cccnc3OC3CCCC3)cc2F)on1 [Example 89, 5-[2-[4-[2-(cyclopentoxy)-3-pyridyl]-2,6-difluoro-phenoxy]ethyl]isoxazol-3-ol] | < 200
39 | CC(C)(CCCC(=O)O)c1ccc(-c2cccnc2OC2CCCC2)cc1 [Example 160, 5-[4-(2-cyclopentyloxy-pyridin-3-yl)-phenyl]-5-methyl-hexanoic acid] | < 200
